Experiment: Determination of the surface tension (Krüss tensiometer K12, ring)
Format: physicochemical
Settings: 20° C.
Text: [table] Further details on the method can be obtained from the publication by the European Commission Classification, Packaging and Labelling of Dangerous Substances in the European Union, Part II—Test Methods, Annex V—Methods for the Determination of Physico-Chemical Properties, Toxicity and Ecotoxicity, Part A, Surface Tension (A.5), January 1997, pages 51-57, and from the OECD Guideline for the Testing of Chemicals, Section 1, Physical-Chemical Properties, Method 115, pages 1-7, adopted: 27, July 95, the contents of which in this respect expressly belong to the disclosure content of the present application.

| SMILES | Surface tension (1.0020 g/l (4.101E−03 mol/l) in deionised water) [mN/m] | Surface tension (2.0015 g/l (8.192E−03 mol/l) in deionised water) [mN/m] | Surface tension (3.0010 g/l (1.228E−02 mol/l) in deionised water) [mN/m] | Surface tension (0.5015 g/l (1.527E−03 mol/l) in deionised water) [mN/m] | Surface tension (1.0000 g/l (3.046E−03 mol/l) in deionised water) [mN/m] | Surface tension (2.0005 g/l (6.093E−03 mol/l) in deionised water) [mN/m] |
| --- | --- | --- | --- | --- | --- | --- |
| CCCCCCCCCCS(=O)(=O)[O-].[Na+] [Decane-sulfonic acid Na salt, sodium decanesulfonate] | 66.13 | 57.70 | 52.61 | – | – | – |
| O=S(=O)(O)CCCCCCCCCCOC(F)(F)F [Example 5, Sodium 10-trifluoromethoxydecane-1-sulfonate] | – | – | – | 59.95 | 52.55 | 42.61 |
